The test system of assay [1] is RSV A2. In words: High-throughput antiviral screening of protease inhibitor library against RSV A2 in HEp-2 cells. The settings on record: RSV A2, MOI = 0.1, 1, 5, 10 µmol/L, 72 hpi. It is filed as cell-based, Respiratory syncytial virus. An excerpt:
Figure 1. Antiviral activity of metalloproteinase inhibitors against RSV in vitro. (A) Experimental workflow for RSV A2 infection and compound treatment. (B) High-throughput screening of TargetMol L1100 library (246 host protease inhibitors targeting 10 pathways: MMPs, caspases, proteasomes, apoptosis regulators, cysteine proteases, gamma-secretase, autophagy modulators, serine proteases, DPP-4, and beta-secretase) using concentration gradients (1, 5, 10 µmol/L). HEp-2 cells were pretreated with compounds for 1 hour prior to RSV A2 infection (MOI = 0.1). Plaque formation was quantified at 72 hours post-infection (hpi) and normalized to DMSO controls. […] (G) Target overlap analysis of four MMP-9-targeting inhibitors. (H) Viral titers in supernatants of HEp-2 cells transfected with MMP-specific siRNAs (24 h) followed by RSV A2 infection (MOI = 1, 72 h). mean ± SD, n = 3. The results are representatively shown with three random experiments. The error bars indicate the mean ± SD of three technical replicates (n = 3). Statistical significance was determined by one-way ANOVA with Dunnett’s post hoc test: *P < 0.05, ***P < 0.001; ns, not significant.
104 High-throughput antiviral screening
105 The L1100 protease inhibitor library (246 compounds; L1100, TargetMol) was
106 screened against RSV A2 in HEp -2 cells. Compounds (10 mM DMSO stocks) were
107 robotically dispensed 1 h pre -infection at final concentrations of 1, 5, 10 μM.
108 Infection rates (72 hpi) were normalized to PC786 (1 μM; positive control; HY -
109 111813, MCE) and 0.1% DMSO vehicle. Primary hits (>50% CPE reduction + not
110 overtly cytotoxic) underwent dose -response validation (0.00004 –10 μM) to generate
111 EC50 curves (GraphPad Prism 8.0) .
112 Evaluation of in vitro antiviral activity
113 Compound inhibitor treatments: HEp-2 cells (1.3×10⁴/well) or HBEC (1.8×10⁴/well)
114 were pretreated with test compounds for 1 h before RSV A2/B18537 infection
115 (MOI=0.1 or 0.3). Viral inhibition was quantified at 72 hpi via FFA. Fixed cells (4%
116 PFA) were permeabilized (0.3% Triton X-100), stained with anti-RSV-FITC
118 Fluorescent foci were normalized to nuclear counts (ImageJ software) for EC 50
119 determination via four-parameter logistic regression (GraphPad Prism 8.0). Data
120 represent triplicate experiments. […]

The subject of assay [2] is RSV A2. In words: BALB/c mouse model of RSV A2 infection, oral treatment. Conditions: 4 dpi, 3 × 10^6 PFU RSV A2. Format: in vivo, BALB/c mice. As for the experimental part: To evaluate the antiviral efficacy of metalloproteinase inhibitors, we employed a BALB/c mouse model intranasally challenged with 3 × 10^6 PFU RSV A2. Mice received twice-daily oral administration of JNJ0966 (selective targeting of MMP-9 ([Scannevin et al., 2017]), 20 or 60 mg/kg [mpk]) or doxycycline hyclate (a broad-spectrum MMP inhibitor ([Patnaik et al., 2021]; [Samtani et al., 2009]), 60 or 180 mpk), beginning 2 hpi (Fig. 9A). By 4 dpi, JNJ0966 (60 mpk) and doxycycline hyclate (180 mpk) reduced lung viral titers by 2.6-fold and 2.0-fold, respectively, compared to vehicle-treated controls (Fig. 9B).
Figure 9. Therapeutic efficacy of MMP-9 inhibitors against RSV in mice. (A) Therapeutic regimen. […] Lung viral titers quantified by FFA at 4 dpi. mean ± SD, n = 5/group. […] Statistical significance was determined by one-way ANOVA with Dunnett’s post hoc test (B, D): **P < 0.01, ***P < 0.001. […]
314 50 μL of stop solution, absorbance at 540 nm was subtracted from the reading at
315 450 nm by PerkinElmer Ensight reader, and analyte concentrations were calculated […]
329 using a tissue grinder. Viral titers were quantified via FFA using 100 μL of […]
332 Two blinded pathologists independently scored histopathological changes on a 0 -4 […]
336 Body weights were monitored daily. […]
337 transcriptomic analyses. Viral loads were determined as focus -forming units per gram […]

For the compound `COc1ccccc1Nc1nc(-c2sc(NC(C)=O)nc2C)cs1` [JNJ0966], in the assay on RSV A2 [1], the “inhibition of RSV infection in HEp-2 cells” value is recorded as “significant dose-dependent inhibition”. Moreover, the “reduction of lung viral titers compared to vehicle-treated controls” value with RSV A2 [2] (60 mpk oral twice daily) worked out at 2.6 fold.
Take Doxycycline hyclate: in the assay on RSV A2 [1], the “inhibition of RSV infection in HEp-2 cells” value is on record as “significant dose-dependent inhibition”. For the same compound, the “reduction of lung viral titers compared to vehicle-treated controls” value in the assay with RSV A2 [2] (180 mpk oral twice daily) was 2.0 fold.

Source of the values: article PMC12888920, “MMP-9 regulates disulphide isomerase activity of TGM2 to enhance fusion glycoprotein-mediated syncytium formation of respiratory syncytial virus” (Protein & Cell, 2025).
